Tests used:
Type in all cases: cell-based
[1] = test system: P. aeruginosa (ATCC 27853); experiment: MIC of ciprofloxacin against P. aeruginosa; conditions: Pseudomonas aeruginosa, ATCC27853
[2] = test system: P. aeruginosa (ATCC 27853); experiment: Simultaneous antibiotic susceptibility (DHR 123) and species identification (anti-P. aeruginosa antibody) by flow cytometry; conditions: dihydrorhodamine 123 5 μM; 3 hour and 4 hour timepoints
Experimental: Cultures of P. aeruginosa (ATCC 27853) were inoculated in 3 ml Mueller-Hinton broth (MHB) with an OD600 of 0.06. After 2 hours at 37 C, the cultures were at OD600 of 0.150. At time =0 hours, a test antibiotic (ciprofloxacin) or vehicle (DMSO) was added to each culture along with dihydrorhodamine 123 at 5 μM final concentration. At 3 hour and 4 hour timepoints,1 mL of the P. aeruginosa cells were centrifuged and resuspended in FACS buffer with a primary anti-Pseudomonas antibody (rabbit polyclonal Anti-Pseudomonas antibody (ab68538, abcam, Cambridge, Mass.)), and incubated for 15 minutes. The tubes were then centrifuged and resuspended in FACS buffer with a secondary antibody (goat anti-rabbit labeled with Cy7 dye) for another 15 minutes. The samples were then run directly on a FACScaliber flow cytometer for analysis.

[3] = test system: E. coli (ATCC 25922); experiment: MIC of norfloxacin against E. coli; conditions: Escherichia coli, ATCC25922

| Structure (SMILES) | MIC [1] | response of DHR 123 labeling to antibiotic [2] | MIC [3] |
| --- | --- | --- | --- |
| O=C(O)c1cn(C2CC2)c2cc(N3CCNCC3)c(F)cc2c1=O [ciprofloxacin] | 0.25 µg/mL | dose-dependent response | – |
| CCn1cc(C(=O)O)c(=O)c2cc(F)c(N3CCNCC3)cc21 [norfloxacin] | – | – | 0.064 µg/mL |

Reference: patent publication US20160257986A1, “Bacterial Diagnosis” (SRI INTERNATIONAL, priority 2013, published 2016)
